# According to article PMC6831561, “Pharmacological and Behavioral Effects of the Synthetic Cannabinoid AKB48 in Rats” (Frontiers in Neuroscience, 2019):
# Like-named read-outs stand apart in the source and are kept apart here.
# Tests used:
# [1] = test system: hepatocyte model; settings: ref Gandhi et al., 2013; cited from earlier work
# [2] = test system: rats; assay: Cardiorespiratory analysis (heart rate, breath rate, SpO2); format: in vivo
# Text: During the experiment, the rat was allowed to freely move in a cage (40 × 40 × 30 cm) with no access to food and water while being monitored by the sensor collar through MouseOx Plus (STARR Life Sciences® Corp., Oakmont, PA, United States) software. In the first hour of acclimation, a fake collar similar to the real one used in the test but with no sensor was used to minimize the potential stress during the experiment. Then, the real collar (with sensor) was replaced, and baseline parameters were monitored for 60 min.
# [3] = test system: rats; assay: Open field test and gross behavior test; format: in vivo
# Experimental: An open field, used to measure locomotor activity, consisted of a wooden chamber (45 cm high) with a circular base (75 cm diameter). The floor was divided into 12 sections of similar area by two concentric circles and radial segments. The apparatus was placed in a sound-proof room, illuminated by a white 80 W lamp placed 200 cm over the center of the arena. Rat behavior in the test sessions was videotaped, analyzed, and scored. The following parameters were measured: time spent in the central or peripheral area, locomotor activity, and number of rearing reactions. Each of the behavioral parameters was scored manually by a tally counting method. The behavioral parameters scored were head twitches, wet dog shakes, grooming, licking, number of defecations, and tail rigidity. In the open field test, 21 male Sprague-Dawley rats were used and divided into three groups (n = 7 per group) and received different doses of AKB48 according to the CPP protocol. After treatment, the animals were leaved undisturbed for 10 min in the arena and then observed for 30 min.
# [4] = AKB48 plasma pharmacokinetics (LC-MS/MS); format: in vivo, rats; settings: for Tmax: male, Sprague-Dawley, rat, plasma, ip, read-out: time to peak plasma concentration (converted)
# Experimental: To correlate the pharmacological effects of AKB48 with its blood levels, we measured somatosensory responses (visual, acoustic, and tactile), body temperature, and mechanical analgesia in rats at timed intervals post-AKB48 injection (for behavioral tests, see before), while simultaneously obtaining serial blood specimens for analysis of AKB48.
# Sixteen male Sprague-Dawley rats were used in the study. Rats were anaesthetized with Equitesin [3 mL/kg intraperitoneal (ip); chloral hydrate 2.1 g, sodium pentobarbital 0.46 g, MgSO 1.06 g, propylene glycol 21.4 mL, ethanol (90%) 5.7 mL, H2O 3 mL] and implanted in the right jugular vein with a catheter, consisting of medical-grade tubing (Silastic, Dow Corning Corporation, MI, United States) according to the technique previously described ([Lecca et al., 2006]). A stable fixation in the mid-scapular region of the back was embedded by a polypropylene mesh (Evolution, BULEV, weight 48 g/mq, Dipromed, Italy). During the recovery period, at least 7 days after surgery, the catheters were flushed daily with 0.1 mL of gentamicin (40 mg/mL) and with heparinized saline (heparin 250 U/mL in 0.9% sterile saline). Fifteen days after recovery from surgery, rats were trained in handling, behavioral tests, and withdrawing blood from the catheter. Four groups of rats (n = 4) randomly received intraperitoneal injection of a single dose of AKB48 (0.1, 0.3, 0.5, or 3.0 mg/kg), and behavioral tests were conducted as previously reported in safety pharmacology studies (see before). Blood specimens (300 μL) were withdrawn via catheters immediately before the behavioral measurements (T = 0) and at 20, 40, 70, 140, and 195 min after drug injection. Blood specimens were collected into 1–mL vials containing sodium fluoride (4 mg/mL of blood) as preservative and anticoagulant. After each blood withdrawal, an equal volume of saline solution was infused via the intravenous catheter to maintain volume and osmotic homeostasis.
# A dispersive liquid-liquid microextraction (DLLME) was performed for sample purification. Three hundred microliter of blood samples were spiked with 10 μL of JWH-209 D9 as an internal standard, achieving the final concentration of 20 ng/mL, and deproteinized with 500 μL of methanol. The sample was centrifuged at 10,000 rpm for 10 min, and 500 μL surnatant was transferred into a 15 mL conical tube containing 1 mL of water, 0.2 g of NaCl, and 100 μL of carbonate buffer, pH 9. In order to obtain the formation of the cloudy solution, 350 μL of a mixture, chloroform/methanol 1:2.5, respectively the extractant and the disperser solvent, was rapidly added to obtain the formation of a turbid mixture. […]
# [5] = AKB48 highest dose (3 mg/kg), after 60 min from injection
# [6] = AKB48 0.1 and 0.5 mg/kg i.p., both doses
structure (smiles),measurement,setting,value
"CCCCCn1nc(C(=O)NC23CC4CC(CC(C4)C2)C3)c2ccccc21 [AKB48, N-(1-adamantyl)-1-pentyl-1H-indazole-3-carboxamide]",number of major metabolites,[1],11
same,duration of the heart rate decrease,[2]; AKB48 3.0 mg/kg i.p.,about 90 min
same,time at which the heart rate effect disappeared,[2]; AKB48 3.0 mg/kg i.p.,180 min
same,reduction of heart rate,"[2]; AKB48 3.0 mg/kg i.p., after 30 min from injection",~36%
same,time at which the SpO2 effect disappeared,[2]; AKB48 highest dose (3 mg/kg),120 min
same,time at which the breath rate effect disappeared,[2]; AKB48 highest dose (3 mg/kg),120 min
same,reduction of SpO2 saturation,[2]; [5],~10%
same,reduction of breath rate,[2]; [5],~30%
same,distance traveled in the central area,[3]; AKB48 0.5 mg/kg,reduced
same,time spent in the central area,[3]; AKB48 0.5 mg/kg,reduced
same,total distance traveled,[3]; AKB48 0.5 mg/kg,reduced
same,amount of defecation,[3]; AKB48 0.1 and 0.5 mg/kg i.p.,did not affect
same,grooming,[3]; AKB48 0.1 and 0.5 mg/kg i.p.,did not affect
same,head shaking,[3]; AKB48 0.1 and 0.5 mg/kg i.p.,did not affect
same,rearing,[3]; AKB48 0.1 and 0.5 mg/kg i.p.,no effect
same,spontaneous locomotor activity,[3]; AKB48 0.1 and 0.5 mg/kg i.p.,reduced
same,wet dog shaking,[3]; AKB48 0.1 and 0.5 mg/kg i.p.,did not affect
same,licking,[3]; [6],decrease
same,tail rigidity,[3]; [6],significant increase
same,plasma concentration versus dose,[4]; 0.1–3.0 mg/kg i.p.,rising linearly
same,plasmatic concentrations after the peak,[4]; for the following 120 min,remained quite stable
same,Tmax,[4]; higher doses (0.5 and 3.0 mg/kg i.p.),60 min
same,Tmax,[4]; low doses (0.1 and 0.3 mg/kg i.p.),30 min
